Laboratory results as given in a melting point compilation (Tetko et al.; mined from patent text by program, amines drawn as free bases though some values may be those of a salt).

melting point [°C] | SMILES
172 to 176 | O=C(O)C1=Cc2cc(S(=O)(=O)Cc3ccccc3)ccc2OC1C(F)(F)F (centres undefined)
146 to 148 | Cc1ccc(-n2nc3c(cc2=O)CCc2sc(C(C)O)cc2-3)cc1 (centres undefined)
261 to 262 | Nc1ccc2c(=O)n(Cc3ccccc3)c(=O)n(-c3ccccc3)c2n1
98 to 100 | CCn1cc(-c2ccccc2)c(=O)c(-c2cccc(C(F)(F)F)c2)c1
177 to 180 | CCOc1ccccc1-c1nc2c(C)cccc2c(=O)[nH]1
165 to 167 | NS(=O)(=O)c1ccc(-c2c(CC(O)c3ccc(Cl)cc3)noc2-c2ccccc2)cc1 (centres undefined)
100 to 101 | COc1ccc(Br)c2c1C[C@H](N(Cc1ccccc1)Cc1ccccc1)CC2
116 | CC(C)(C)N1C(=O)CN(c2ccccc2)C1=O
142 to 143 | COc1ccc2c(c1)Sc1cc(N)ccc1N2C
60 to 65 | CN(NC(=O)OC(C)(C)C)C(=O)OCc1ccccc1
155 to 159 | CCn1c(=O)c2c(N3CCN(C)CC3)cc(Cl)cc2n(Cc2ccccc2)c1=O
180 to 200 | O=C1NC(=O)c2c1ccc(N1C(=O)C=CC1=O)c2N1C(=O)C=CC1=O
188 to 193 | CCOC(=O)c1cnn(-c2ccc(-n3cc(OC)c(=O)c(-c4ccnn4-c4ccccc4)n3)c(F)c2)c1O
185 | O=C(Nc1cc2ncc(CN3CCCC3)cc2cc1Cl)c1ccc(-c2ccc(Cl)s2)cc1
114 | COC(=O)c1nn(-c2ccc(Cl)cc2Cl)c(-c2ccc(Cl)cc2)c1CF
91 to 95 | CC(=O)OCn1cc(C#N)c(-c2ccccc2Cl)c1
182 to 183 | Cn1nc(-c2ccccc2)c(N2CCOCC2)c(C=NO)c1=O
235 to 236 | CCOC(=O)Nc1nc(-c2ccccc2)c(-c2nc3ccccc3c(=O)n2-c2cccc(Cl)c2)s1
143 to 145 | O=C1c2ccccc2C(=O)N1CCCCOc1ccc(-n2cnnn2)cc1
115 to 117 | CCC1CCCCN1CCNc1ccnc2cc(Cl)ccc12 (racemic)

melting point [°C] | SMILES
161 to 162 | C=CCc1cc(C)c2c(c1O)C(C)(C)C(=O)N2Cc1ccccc1
278 to 280 | Cc1cc(-c2ccc(Cl)cc2)nn2c(=O)[nH]nc12
112 to 114 | CS(=O)(=O)Nc1cc(N)ccc1Oc1ccccc1
77 to 78 | CC1C(=O)N(c2ccccc2)c2ccccc21 (centres undefined)
127 to 129 | Cc1nc(C(=O)Nc2cccc(Cl)c2Cl)c(C)n1-c1ccccc1
103 to 104 | CCCN1C(=O)c2ccccc2Sc2ccccc21
177 to 180 | CCCc1nc2c(N)nc3cc(-c4cccc(C(=O)N5CCCC5)c4)ccc3c2s1
142 to 145 | C[C@H]1CN(c2c(F)cc3c(=O)c(C(=O)O)cn4c3c2CCN4C)C[C@H]1NC(=O)CNC(=O)OC(C)(C)C (relative stereo)
143 to 145 | COc1ccccc1N1CCN(CC(O)COc2ccc(OCc3ccccc3)c3ccccc23)CC1 (centres undefined)
240 to 244 | O=c1[nH]c2ccc(C(O)CCN3CCC(Cc4ccccc4)CC3)cc2[nH]1 (centres undefined)
101 to 102 | O=C(SCCC(=O)N1CCC[C@H]1C(=O)O)c1ccccc1
165 to 166 | NC1=NN(c2cccc(F)c2)C(c2ccccc2)C1 (centres undefined)
68 to 70 | COCc1cc(C(O)CNCCCCCCOCCCc2ccccc2)ccc1O (centres undefined)
198 to 200 | CCCCc1nc(C(F)(F)F)c(CO)n1Cc1ccc(-c2ccccc2C(=O)O)cc1
157 | CCOC(=O)N1CCCC(Nc2nc3cncnc3n2Cc2ccc(F)cc2)CC1 (centres undefined)
143 to 146 | CON1C(C)(C)CC(OC(=O)C2=C(c3ccccc3)C(c3ccccc3)OC2=O)CC1(C)C (centres undefined)
199 to 200 | COc1ccc(Cn2c(S)nc3ccccc32)cc1
127 to 128 | COC(=O)c1ccc(OCCCN2C(=O)c3ccccc3C2=O)c(OC)c1
187 to 190 | N[C@@H](CSCC1CCN(C(=O)OCc2ccccc2)CC1)C(=O)O

Continued, molecule first:

SMILES | melting point [°C]
O=C1OC(c2ccccc2)=NC1Cc1c[nH]c2ccccc12 (centres undefined) | 141 to 143
CCn1nc(C(C)C)c2c1C(=O)NCC(c1ccc(O)cc1)=N2 | 230
N#Cc1ccc(C2(CBr)OCCO2)cc1 | 92.4
Cc1ccc(Oc2ccccc2C#N)c(O)c1 | 118 to 119
Cc1cccc(C2=CCN(CCCn3c(=O)[nH]c4c(Cl)cccc4c3=O)CC2)c1 | 214 to 216
CCCCCCCCCCCC(=O)Oc1ccc2[nH]c3c(C)c4ccncc4c(C)c3c2c1 | 188 to 190
CC(C)(C)[C@H]1CC[C@H](CCC(=O)O)CC1 | 105 to 107
CON(C(=O)Nc1nc(OCC(F)(F)F)cc(OCC(F)(F)F)n1)c1ccc(Cl)cc1 | 275 to 276
CC1(C)C(=O)Nc2cc(C(=O)Nc3ccc(N)cc3)ccc21 | 216 to 218
CC(O)(C#Cc1ccc(S(=O)(=O)N2CCCC2)cc1)C(F)(F)F (centres undefined) | 140 to 143
CCN1CCN(c2ccc(Br)cc2)CC1 | 112
N#Cc1ccc(Nc2nc(Oc3c(Br)cc(C=O)cc3Br)ccc2[N+](=O)[O-])cc1 | 218 to 220
C=CCCCCS(=O)(=O)C[C@@H](C)C(=O)O | 51 to 54
COc1ccc(COC(=O)ON=C(C#N)c2ccccc2)cc1 | 112 to 113
CCOC(=O)c1c2n(c3cc(Br)c(F)cc3c1=O)C(C)CS2 (centres undefined) | 211
CCCCOP(=O)(CCCC1(c2ccccn2)c2ccccc2-c2ccccc21)OCCCC | 126 to 128
COc1cc(C)c(C2=C(C)CN(O)C=C2C)c(C)c1 | 194 to 195
COc1ccc(OC)c(C2(O)CCCCC2C(c2ccccc2)N(C)C)c1 (centres undefined) | > 240
CC(=O)NC(Cc1csc2ccccc12)C(CCc1cc(C(F)(F)F)cc(C(F)(F)F)c1)=NO (centres undefined) | 200 to 201
CCOC(=O)C(=O)Nc1ccc(-n2ccnc2)cc1 | 177 to 180

SMILES | melting point [°C]
O=C(NCC1CC1)c1c(NC(=O)c2cc(C(F)(F)F)nn2-c2ncccc2Cl)c(Br)cc2cn[nH]c12 | 144 to 150
CC(C)(O)Cc1cc(O)ccc1Br | 139 to 141
O=C(O)C/C(C(=O)O)=C(\CCCCCCCCCCCCCCCCOS(=O)(=O)O)C(=O)O | 63 to 65
CC(=O)OC1COC(NNC(=O)C(F)(F)F)C(OC(C)=O)C1OC(C)=O (centres undefined) | 106
C1=NC=C2CCNC=C12 | 182 to 190
O=C1NC(=O)c2c1c(O)nc1cc(Cl)c(Cl)cc21 | > 350
CNC(=O)c1ccc(Nc2nc(OCC3CCCCC3)c3nc[nH]c3n2)cc1 | 139 to 142
CC1Cc2cc(C3C(=O)Oc4c3cc(C(C)(C)C)cc4C(C)(C)C)ccc2O1 (centres undefined) | 136 to 152
CC#Cc1ccc(-c2ccc(-c3ccc(CCCCC)c(F)c3F)cc2)cc1 | 127
CC(C)(Oc1ccc(Cl)cc1)C(O)(Cn1cncn1)c1ccc(Cl)cc1 (centres undefined) | 135
O=C(Oc1ccc2cc3cc(OC(=O)c4ccc(O)cc4)ccc3cc2c1)c1ccc(O)cc1 | 324
O=P(Oc1ccc(-c2ccc(OP(=O)(c3ccccc3)c3ccccc3)cc2)cc1)(c1ccccc1)c1ccccc1 | 233 to 234
CCOC(=O)c1csc(/C=C/c2cccc(N)c2)n1 | 112 to 113
Cc1ccc(-c2c(C(=O)NCc3cc(C(F)(F)F)cc(C(F)(F)F)c3)n(CCC(C)CO)c(=O)c3ncccc23)cc1 (racemic) | 129 to 130
CCC(=O)Nc1cccc(NC(=O)C=C(C)OC)c1 | 155
COc1ccc(NC(=O)C(C)(C)CCCOc2cc(C)ccc2C)cc1OC | 110 to 111
COC(=O)c1c(F)c(F)c(N=[N+]=[N-])c(F)c1F | 53.6 to 54.3
CN1CCCC1=NC(=O)Nc1ccc(Br)cc1 | 134 to 136
FC(F)(F)COc1ccccc1Sc1nc[nH]n1 | 100 to 101
CCCCCC(Oc1ccc(C2=CCCCCC2)cc1)C(=O)O (centres undefined) | 69 to 71

SMILES | melting point [°C]
COc1ccc(C2=NNC(=O)C(C)C2)cc1 (centres undefined) | 203 to 206
O=C(Cl)c1cccc(Oc2ccc(S(=O)(=O)c3ccc(Oc4cccc(C(=O)Cl)c4)cc3)cc2)c1 | 113 to 116
Cc1c(F)cc(C(=O)NCCC(C)C)cc1-c1ccc(C(=O)NCC(C)(C)C)cc1C(=O)Nc1nccs1 | 159 to 164
CN(C(=O)CN(C(=O)CNC(=O)Nc1cccc(S(N)(=O)=O)c1)c1ccccc1)c1ccccc1 | 175
COc1ccc(NC(=O)c2ccccc2N)cc1 | 116 to 117
COc1cccc([Si](C)(C)COc2cc(C(C)(C)C)c(O)c(C(C)(C)C)c2)c1OC | 94.5 to 96
CC1(C)CCC(C)(C)c2cc(C(N)C(=O)Nc3ccc(C(=O)O)cc3)ccc21 (centres undefined) | 203 to 204
CCn1nc(C)c2c1C(=NC#N)NCC(c1ccc(O)cc1)=N2 | 300
COC(=O)[C@@H]1CSC(=S)N1CC(C)(C)S | 126 to 127
COc1ccc(-n2nc(Sc3ccc(C(C)C)cc3)c(C)c(C#N)c2=O)cc1 | 141 to 144
COc1cccc2sc(-c3ccc(C(=O)O)cc3)nc12 | 289 to 291
Cc1cccc(C(=O)O)c1Cl | 141 to 142
O=C(O)c1ccc(-c2cc([N+](=O)[O-])ccc2F)cc1 | > 280
Clc1ccc(C=CC=Cc2ccccc2)cc1 | 161
C=C(C)C(=O)NCCCC(=O)Nc1cc(Cl)c(C)c(Cl)c1O | 119 to 121
CCOC(=O)COc1ccc(SCc2ccc3sc(-c4ccc(C(F)(F)F)cc4)nc3c2)cc1C | 138 to 140
CN1C(=O)[C@H](NC(=O)CNc2ccccc2Cl)N=C(c2ccccc2)c2ccccc21 | 222 to 224
CCOCc1nc2c(N)nc3cc(/C=C/C(=O)OC)ccc3c2n1CCCCN1CCCS1(=O)=O | 162 to 163
COc1cccc(-c2nn(Cc3oc4ccccc4c(=O)c3-c3cccc(F)c3)c3ncnc(N)c23)c1 | 175 to 178
CCCCOC1c2ccccc2C(=O)N(CC2CC2)C1(/C=C/C(=O)OCC)CNC(=O)OC(C)(C)C (centres undefined) | 166 to 167
